Results published in PMC6270359, “Cholinesterase Enzymes Inhibitors from the Leaves of Rauvolfia Reflexa and Their Molecular Docking Study” (Molecules, 2013).
Values joined by “and” are separate entries in the source; they are usually repeats but may differ in a detail not shown here. Equal entries are not always repeated. Where two headings read alike, the source gives them in different places.

Legend:
[1] = biological target: T1, acetylcholinesterase from electric eel (AChE) (Electrophorus electricus, UniProt O42275); experiment: Acetylcholinesterase inhibitory assay (Ellman's microplate assay); format: biochemical; settings: for IC50: Mean ± SD (n = 3)
T1 construct: purchased Sigma Chemicals (St. Louis, MO, USA)
T1 sequence (O42275 24-633): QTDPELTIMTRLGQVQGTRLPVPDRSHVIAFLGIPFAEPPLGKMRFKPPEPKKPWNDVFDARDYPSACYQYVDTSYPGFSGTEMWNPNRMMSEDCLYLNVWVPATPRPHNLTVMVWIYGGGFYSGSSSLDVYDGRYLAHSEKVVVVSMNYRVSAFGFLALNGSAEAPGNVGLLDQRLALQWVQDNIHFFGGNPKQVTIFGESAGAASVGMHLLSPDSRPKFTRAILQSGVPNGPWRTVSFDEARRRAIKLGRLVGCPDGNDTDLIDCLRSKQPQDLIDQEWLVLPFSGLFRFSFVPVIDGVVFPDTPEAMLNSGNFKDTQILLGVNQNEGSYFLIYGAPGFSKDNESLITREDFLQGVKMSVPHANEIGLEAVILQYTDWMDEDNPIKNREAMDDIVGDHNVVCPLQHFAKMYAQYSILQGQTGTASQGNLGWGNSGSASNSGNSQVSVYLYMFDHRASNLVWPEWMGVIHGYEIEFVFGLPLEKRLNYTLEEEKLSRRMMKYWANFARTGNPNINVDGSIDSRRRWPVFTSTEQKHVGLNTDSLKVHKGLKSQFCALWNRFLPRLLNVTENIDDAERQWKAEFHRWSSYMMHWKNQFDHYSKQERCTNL
Experimental: (§1) Acetylthiocholine iodide (ATCl), acetylcholinesterase from electric eel (AChE), 5,5'-dithiobis[2-nitrobenzoic acid] […] All the other reagents used were of analytical grade.
(§2) Cholinesterase enzymes inhibitory potential of test samples was evaluated using Ellman’s microplate assay following the method described by Ahmed and Gilani with slight modifications. […] The concentration of DMSO in final reaction mixture was 1%.
(§3) For acetylcholinesterase (AChE) inhibitory assay, 140 μL of 0.1 M sodium phosphate buffer (pH 8) was first added to a 96-wells microplate followed by 20 μL of test samples and 20 μL of 0.09 units/mL acetylcholinesterase enzyme. After 15 min of pre-incubation at 25 °C, 10 μL of 10 mM 5,5'-dithiobis (2-nitrobenzoic acid) was added into each well, followed by 10 μL of 14 mM acetylthiocholine iodide. After the initiation of enzymatic reaction, absorbance of the coloured end-product was measured for 15 min using Tecan Infinite 200 Pro Microplate Spectrophotometer (Männedorf, Switzerland) at 417 nm.
(§4) For butyrylcholinesterase (BChE) inhibitory assay, the same procedures as described above were followed except for the use of enzyme and substrate, which were BChE from equine serum and S-butyrylthiocholine chloride, respectively. Each test was conducted in triplicate. Absorbencies of the test samples were corrected by subtracting the absorbance of their respective blank. […] Percentage inhibition was calculated using the following formula: Percentage inhibition (%) = Absorbance of control - Absorbance of test sample/Absorbance of control×100%

[2] = biological target: T2, butyrylcholinesterase from equine serum (BChE) (Equus caballus, UniProt P81908); experiment: Butyrylcholinesterase inhibitory assay (Ellman's microplate assay); format: biochemical
T2 construct: purchased Sigma Chemicals (St. Louis, MO, USA); host or cells: equine serum
T2 sequence (P81908 whole entry): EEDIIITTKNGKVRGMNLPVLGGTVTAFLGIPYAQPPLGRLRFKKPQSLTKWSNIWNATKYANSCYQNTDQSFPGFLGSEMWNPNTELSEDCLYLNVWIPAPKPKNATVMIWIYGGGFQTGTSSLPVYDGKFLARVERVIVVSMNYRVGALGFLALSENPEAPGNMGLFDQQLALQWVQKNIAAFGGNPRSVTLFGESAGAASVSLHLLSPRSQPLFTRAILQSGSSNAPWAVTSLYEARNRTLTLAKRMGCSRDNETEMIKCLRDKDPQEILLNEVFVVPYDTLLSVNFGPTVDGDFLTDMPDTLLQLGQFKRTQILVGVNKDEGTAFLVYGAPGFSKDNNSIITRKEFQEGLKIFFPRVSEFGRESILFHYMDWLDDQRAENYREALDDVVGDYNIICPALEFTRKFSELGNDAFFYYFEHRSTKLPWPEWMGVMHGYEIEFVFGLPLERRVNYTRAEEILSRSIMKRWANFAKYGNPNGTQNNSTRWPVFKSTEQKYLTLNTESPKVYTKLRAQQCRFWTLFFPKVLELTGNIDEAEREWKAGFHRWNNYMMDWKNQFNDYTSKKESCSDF
Experimental: as §1, §2, §3, §4

[3] = isolated chemical constituents at 10 μg/mL, initial screening
[4] = chemical constituents, read-out: AChE inhibition, IC50 (converted)

In the case of `COc1cc(/C=C/C(=O)O)cc(OC)c1OC` [Compound 1, (E)-3-(3,4,5-Trimethoxyphenyl) acrylic acid], the IC50 ([1]; AChE inhibition, IC50, chemical constituents) is reported as 60.1 µM, the AChE inhibition [1, 3] is reported as “much lower inhibition” and the IC50 ([1]; read-out: AChE inhibition, IC50, chemical constituents) is reported as 60.2 ± 14.4 µM.

For `COC(=O)/C=C/c1cc(OC)c(O)c(OC)c1` [Compound 2, (E)-methyl 3-(4-hydroxy-3,5-dimethoxyphenyl) acrylate], the “Selectivity for AChE” value ([1]; chemical constituents, IC50(BChE)/IC50(AChE)) was 0.39, the IC50 [1, 4] was 158 µM and the inhibition at 10 µg/mL [1, 3] was 40.4%. For the same compound, the “Selectivity for BChE” value ([2]; chemical constituents, IC50(AChE)/IC50(BChE)) was 2.56, the IC50 ([2]; chemical constituents, Mean ± SD (n = 3), read-out: BChE inhibition, IC50 (converted)) was 61.7 µM and the inhibition at 10 µg/mL [2, 3] was 91.3%.

With `O=C1NCCc2c1[nH]c1ccccc21` [Compound 4, 1,2,3,4-Tetrahydro-1-oxo-β-carboline] the IC50 [1, 4] was 83.3 µM and 83.4 µM and the inhibition at 10 µg/mL [1, 3] was 41.3%.
